Test results as given in patent publication US10537541B2, “Treatment of focal segmental glomerular sclerosis (FSGS) using therapeutically effective oral doses of 10-nitro-9(E)-octadec-9-enoic acid” (Complexa, Inc., priority 2015, dated 2020).
Like-named read-outs stand apart in the source and are kept apart here.

Experiments:
[1] = test system: deoxycorticosterone acetate (DOCA)/salt-induced model of FSGS; assay: DOCA salt study: RT-PCR analysis of kidney gene expression; assay type: in vivo, mice (129/sv strain); details: DOCA/salt mice kidney; for Nephrin gene expression / Podocin gene expression: normalized to 18S, fold changes to control group, mean ± SEM; for gene expression of MCP-1, osteopontin, collagen III, fibronectin and PAI-1 (mRNA, qRT-PCR): 4 weeks
Protocol: Induction of model: Male mice (129/sv strain) were purchased from Taconic Labs. The animals were uninephrectomized (Unx) at 6 weeks of age by the vendor and shipped one week after surgery. At 2 weeks post Unx, a DOCA or placebo pellet (21-day release pellets, 50 mg/pellet, Innovative Research of America, Sarasota, Fla.) was implanted s.c. All mice were then placed on a semisynthetic diet which contained a moderate fat content and a low phytoestrogen/anti-oxidant level, which approximates a normal human diet (4). A second DOCA or placebo pellet was implanted three weeks later.
Treatment: Mice were treated with placebo, 10-nitro-9(E)-octadec-9-enoic acid at a dose of 2.5 and 12.5 mg/kg, or enalapril (standard of care) for 4 weeks by oral gavage starting 2 weeks after the first DOCA implantation. One percent NaCl in tap water was given to each group except the sham control group. Body weight was measured weekly, and doses were readjusted based on the current body weight. Urine and blood samples were collected prior to treatment and at week 2 and 4 of treatment. Mice were terminated at week 4. Data is presented as the mean+SEM for the number of animals listed in each group.
RT-PCR Analysis of Gene Expression: A slice of kidney from each mouse was placed in Trizol solution (Invitrogen) immediately after harvesting and stored at −80° C. until analysis. Tissues were homogenized using a bead mill in 0.5 ml of Trizol solution and total RNA was extracted with chloroform (Sigma) and purified using standard RNeasy mini kit (Qiagen), with on column DNase 1 (Qiagen) digestion to avoid non-specific fluorescence emission derived from the recognition of contaminating genomic DNA by the probe, according to manufacturer's recommendation. RNA samples were eluted in 30 μl of nuclease-free water and quantified using a Nanodrop. cDNA was generated from 2 μg of RNA by using Clontech Sprint PowerScript reagents according to manufacturer's protocol. Fluorogenic probes specific for genes assayed in the report were purchased from Applied Biosystems. PCR amplification and analysis of PCR reaction were performed and monitored using an ABI Prism 7900HT Sequence Detection System (TaqMan, Perkin-Elmer Applied Biosystem). Data analysis was carried out by using the Sequence Detection Systems v2.3 program (Applied Biosystems). For each cDNA sample the Ct value of each target sequence was normalized to reference gene (Ribosomal RNA-18S), and shown as fold changes to control group. Statistical analyses for gene expression data was performed using a two-tailed Student's t-test.

obese male subjects = assay: Multiple ascending dose study in obese males: safety and tolerability; assay type: in vivo, human; details: for GI adverse events, number (percentage) of subjects / General Disorders adverse events, number (percentage) of subjects / Muscle and CT disorders adverse events, number (percentage) of subjects / Nervous System adverse events, number (percentage) of subjects / Skin and SQ disorders adverse events, number (percentage) of subjects: n = 10
Text: (§1) The primary endpoints of this study included safety and tolerability, pharmacokinetics, and biomarkers. The safety and tolerability included physical examinations, adverse event (AE) reporting, vital signs (blood pressure, heart rate, respiratory rate), clinical laboratory values (hematology, biochemistry, and urinalysis) including serum magnesium and creatine phosphokinase (CPK), 12-lead electrocardiograms (ECGs) for safety assessments and QTcF measured on ECGs extracted from cardiac Holter monitoring. The pharmacokinetic measurements included maximum observed plasma drug concentration (Cmax), time to maximum plasma drug concentration (Tmax), terminal phase half-life (t½), area under the plasma drug concentration versus time curve (AUC0-last, AUC0-∞), clearance (CL/F), volume of distribution (Vd/F) and terminal elimination rate constant (λz).
(§2) This was a single-center, randomized, double-blind, placebo-controlled study of sequential multiple ascending doses of oral CXA-10 in obese male subjects. Eligible subjects included obese males age 19 to 57 years and BMI 27.0 to 39.5 kg/m^2. CXA-10 and placebo were provided as solutions in hard shell capsules. Three (3) cohorts of subjects were dosed once daily with CXA-10 for 14 days. The doses administered in this study were 25, 150 and 450 mg. Subjects enrolled in the highest dose level (450 mg) were administered 600 mg on day 1 then 450 mg for 13 days. This cohort (cohort 3) was given the option to receive an additional 450 mg dose on day 15 with a high fat (50%) breakfast.
Each cohort of subjects was randomized to receive CXA-10 (10 subjects) or placebo (4 or 5 subjects). Safety, pharmacokinetic (PK) and pharmacodynamic (PD) assessments were evaluated throughout the study. The last study visit occurred on Day 28. All subjects remained in the unit during the treatment period and were discharged approximately 24 hours after the last dose was administered. Food restrictions were incorporated to minimize variability in biomarker evaluation and body weight.
(§3) Subjects remained at the unit until discharge on Day 15 after assessments were completed and reviewed. […] They remained in the unit until Day 16 (24 h after last dose on Day 15) before being discharged from the unit. The additional procedures on Day 15 and Day 16 were optional for subjects in cohort 3.
Safety and tolerability was evaluated throughout the study. Continuous Holter monitoring was performed on Days −1 and on Day 14 in all three cohorts. Continuous Holter monitoring could also be performed at highest dose cohort on an additional day between Days 2 and 4. The decision to conduct Holter monitoring and the actual day of the additional monitoring was determined based on emerging data.

[2] = Multiple ascending dose study in obese males: pharmacokinetics; assay type: in vivo, human; details: for plasma concentration Day 21 / plasma concentration Day 28: after 14 days dosing; for Tmax: male, human, plasma, oral, 450 mg, read-out: Median Tmax
Text: as §1, §2, §3
Full PK profiles were obtained on Days 1 and 14. For subjects in cohort 3 who participate in the additional procedures on Day 15, full PK profiles were obtained on Days 1, 14, and 15. An abbreviated PK profile could also be obtained for the highest dose cohort only on one additional day. The actual day of PK sampling coincided with the additional day of Holter monitoring for the highest dose cohort. Subjects returned on Day 21 and Day 28 for PK, safety, and biomarker assessments.

[3] = Cohort 1, 25 mg once daily 14 days
[4] = Cohort 2, 150 mg once daily 14 days
[5] = Cohort 3, 450 mg once daily (600 mg on day 1)
[6] = obese males, 25-450 mg once daily
[7] = cohort 3, day 15 with high fat (50%) breakfast versus fasted

## CCCCCCCC/C(=C\CCCCCCCC(=O)O)[N+](=O)[O-] [CXA-10, 10-nitro-9(E)-octadec-9-enoic acid]
[1]; 2.5 mpk
  Nephrin gene expression: 1.264 ± 0.0789
  Podocin gene expression: 1.077 ± 0.123
[1]; 12.5 mpk
  Nephrin gene expression: 1.313 ± 0.15
  Podocin gene expression: 1.117 ± 0.084
[1]; high dose 12.5 mg/kg p.o. QD
  gene expression of MCP-1, osteopontin, collagen III, fibronectin and PAI-1 (mRNA, qRT-PCR): neither the high dose 10-nitro-9(E)-octadec-9-enoic acid nor enalapril had an effect
[1]; low dose 2.5 mg/kg p.o. QD
  gene expression of MCP-1, osteopontin, collagen III, fibronectin and PAI-1 (mRNA, qRT-PCR): inhibited these genes
Obese male subjects; 450 mg
  HBG, HCT and RBC concentration during treatment compared to placebo treated subjects: slight decrease
Obese male subjects; Cohort 1 (25 mg)
  GI related AEs: subjects with nausea: 1 subject had nausea subjects
Obese male subjects; [3]
  GI adverse events, number (percentage) of subjects: 2 (20%)
  General Disorders adverse events, number (percentage) of subjects: 1 (10%)
  Muscle and CT disorders adverse events, number (percentage) of subjects: 2 (20%)
  Nervous System adverse events, number (percentage) of subjects: 0 (0%)
  Skin and SQ disorders adverse events, number (percentage) of subjects: 2 (20%)
Obese male subjects; Cohort 2 (150 mg)
  GI related AEs: subjects with diarrhea: 5 subjects had diarrhea: 1 subject had diarrhea ~2 hr
Obese male subjects; [4]
  GI adverse events, number (percentage) of subjects: 5 (50%)
  General Disorders adverse events, number (percentage) of subjects: 0 (0%)
  Muscle and CT disorders adverse events, number (percentage) of subjects: 0 (0%)
  Nervous System adverse events, number (percentage) of subjects: 1 (10%)
  Skin and SQ disorders adverse events, number (percentage) of subjects: 0 (0%)
Obese male subjects; Cohort 3 (450 mg w food)
  GI related AEs: subjects with diarrhea: 3 subjects
  GI related AEs: subjects with nausea: 1 subjects
Obese male subjects; Cohort 3 (450 mg)
  GI related AEs: subjects with diarrhea: 9 subjects
  GI related AEs: subjects with nausea: 4 subjects
Obese male subjects; [5]
  GI adverse events, number (percentage) of subjects: 9 (90%)
  General Disorders adverse events, number (percentage) of subjects: 3 (30%)
  Muscle and CT disorders adverse events, number (percentage) of subjects: 2 (20%)
  Nervous System adverse events, number (percentage) of subjects: 4 (40%)
  Skin and SQ disorders adverse events, number (percentage) of subjects: 1 (10%)
Obese male subjects; [6]
  CPK (muscle enzyme) or magnesium serum levels: no abnormalities
  QTc interval (routine ECG after dosing for 15 days; ECG extraction from continuous 24-hour Holter monitoring): no prolongation of QTc interval
  clinical laboratory, vital signs or ECG evaluations: no clinically significant findings
Obese male subjects; obese males, oral once daily
  time to resolution of diarrhea: ≤ 4 h
Obese male subjects; obese males, did not worsen with increasing dose
  intensity of diarrhea (grade): grade 1 or 2
[2]; 25 mg cohort
  plasma concentration Day 21: 0.17 ng/mL
  plasma concentration Day 28: 0 ng/mL
[2]; 150 mg cohort
  plasma concentration Day 21: 0.33 ng/mL
  plasma concentration Day 28: (0.39 ng/mL
[2]; 450 mg cohort
  plasma concentration Day 21: 0.38 ng/mL
  plasma concentration Day 28: 0.30 ng/mL
[2]; 25, 150, 450 mg once daily, day 1 and day 14
  pharmacokinetics profiles (dose proportionality, accumulation): dose proportional concentration-times with minimal accumulation
[2]; [7]
  increase of AUC under fed conditions: about 1.7 fold
  increase of Cmax under fed conditions: about 2 fold
[2]; fasted conditions
  Tmax: 3 h
[2]; fed conditions (high fat breakfast)
  Tmax: 6 h
